From publication PMC10611374, “Characterization of the Hemolytic Activity of Mastoparan Family Peptides from Wasp Venoms” (Toxins, 2023)
Where “and” joins values, the source holds several entries; their conditions need not be identical. Equal entries are not always repeated. Where two headings read alike, the source gives them in different places. Ends that are not written are not given here.

How the values were obtained:
[1] = system: human red blood cells (HRBCs); assay: Hemolytic assay on human red blood cells; assay type: cell-based; conditions: for HRBC Hemolysis (hemolysis rate at 320 μg/mL) / EC50: human red blood cells 5% (v/v) in PBS, 37 °C 1 h, OD 540 nm; for HRBC Hemolysis (hemolysis rate at 320 μg/mL): peptide 320 μg/mL (highest dose), PBS = 0%, mean of three independent experiments; for EC50: four-parameter logistic fit of mean of three independent experiments, '-' = hemolytic activity too low to calculate the EC50
Method: (§1) Fresh human red blood cells were obtained from healthy donors and collected in a sterile blood collecting vessel covered with sodium citrate (1:9) as the anticoagulating agent. Rat red blood cells were collected from the abdominal aorta in sterile blood-collecting vessels coated with sodium citrate (1:4) after the SD rats were anaesthetized with isoflurane. Then, the cells were washed three times with phosphate-buffered saline via centrifugation (1000× g, 4 °C, 5 min) and prepared in a sterile 96-well polypropylene plate to achieve a final concentration of 5% (v/v). Twofold dilutions of the peptides were prepared in PBS to 100 μL and mixed with an equal volume of HRBCs/RRBCs suspension to final peptide concentrations ranging from 10 to 320 μg/mL. After coincubation at 37 °C for 1 h, the plate was centrifuged (2000× g, 4 °C, 20 min), and 100 μL of supernatant was taken for optical density measurements at 540 nm using a microtiter plate reader (SpectraMax 190). The HRBCs/RRBCs were assayed with PBS (blank) or 1% Triton X-100 (positive control) to represent 0% and 100% hemolysis, respectively. The percent hemolysis was calculated according to the following equation: Hemolysis Rate (%) = 100% × (Amastoparans − Ablank)/(ATriton X-100 − Ablank). Three independent experiments were performed, and the mean hemolysis rate at each dose was used to calculate the EC50 in Sigmaplot software.
(§2) Statistical analysis was performed with GraphPad Prism software (version 5.0, San Diego, CA, USA). A two-tailed Student’s t-test was used to calculate the statistical probability in this study. Differences in the data were considered to be statistically significant when the p value was equal to or less than 0.05. The curve of hemolysis induced by wasp mastoparans was generated in SigmaPlot 12.5 software, and the EC50 was calculated according to the equation (Four Parameter Logistic Curve): y = min + (max − min)/(1 + (x/EC50)^−Hillslope). The heat map of hemolytic activity of mastoparan peptide was analysed in R software which is based on the value of log2(EC50).

[2] = system: rat red blood cells (RRBCs); assay: Hemolytic assay on rat red blood cells; assay type: cell-based, SD rats; conditions: rat red blood cells 5% (v/v) in PBS, 37 °C 1 h, OD 540 nm; for RRBC Hemolysis (hemolysis rate at 320 μg/mL): peptide 320 μg/mL (highest dose), PBS = 0%, mean of three independent experiments; for EC50: four-parameter logistic fit of mean of three independent experiments, '-' = hemolytic activity too low to calculate the EC50
Method: as §1, §2

[3] = peptide 10-320 μg/mL twofold dilutions, 1% Triton X-100 = 100%, read-out: RRBC EC50 (hemolytic activity)
[4] = Table 2 series, read-out: HRBC EC50 (hemolytic activity), Protopolybia-MPIII and mutants
[5] = Table 2 series, read-out: RRBC EC50 (hemolytic activity), Protopolybia-MPIII and mutants
[6] = peptide 10-320 μg/mL twofold dilutions, 1% Triton X-100 = 100%, read-out: HRBC EC50 (hemolytic activity)

| Compound | HRBC Hemolysis (hemolysis rate at 320 μg/mL) ([1]; 1% Triton X-100 = 100%) | RRBC Hemolysis (hemolysis rate at 320 μg/mL) ([2]; 1% Triton X-100 = 100%) | EC50 [2, 3] | EC50 [1, 4] | EC50 [2, 5] | EC50 [1, 6] | hemolytic activity on HRBCs, result in words ([1]; mutants relative to Protopolybia-MPIII) | EC50 ([1]; peptide 10-320 μg/mL twofold dilutions, 1% Triton X-100 = 100%, listed as Polybia-MPI, read-out: HRBC EC50 (hemolytic activity)) |
| --- | --- | --- | --- | --- | --- | --- | --- | --- |
| GRILSFIKGLAEHL-NH2 [EMP-OD] | 2% | 49% | 190 ± 32 µM | – | – | – | – | – |
| INWLKLGKKVIAAL-NH2 [Protopolybia-MPIII-6] | – | – | – | 110 ± 2.5 µM | 108 ± 3.2 µM | – | – | – |
| INWLKLGKAVIDAL-NH2 [Protopolybia-MPIII] | 96% | 93% | 34.6 ± 2.8 µM | – | 42.8 ± 2.1 µM | 61.9 ± 8.3 µM | – | – |
| INWLKLGKKVIDIL-NH2 [Protopolybia-MPIII-7] | – | – | – | 37.8 ± 3.7 µM | 57.5 ± 2.7 µM | – | – | – |
| INWKALLDAAKKVL-NH2 [Protonectarina-MP] | 100% | 35% | 326 ± 26.4 µM | – | – | – | – | – |
| INWLKLGKKVSAIL-NH2 [Protopolybia-MP I] | 5% | 5% | > 400 µM | > 400 µM | > 400 µM | > 400 µM | almost no hemolytic activity | – |
| INWKKIASIGKEVLKAL-NH2 [PMM2] | 100% | 100% | 80.9 ± 6.4 µM | – | – | 42.6 ± 2.5 µM | – | – |
| INLKAIAALVKKVL-NH2 [HR1] | 56% | 39% | 253 ± 13 µM | – | – | 198 ± 8.9 µM | – | – |
| INWLKLGKAVSDAL-NH2 [Protopolybia-MPIII-2] | – | – | – | 673 ± 189 µM | 639.5 ± 1.6 µM | – | – | – |
| INLFGFAALVKKFL-NH2 [Mastoparan-T4] | 100% | 100% | 17.6 ± 2.4 µM | – | – | 28.5 ± 2.3 µM | – | – |
| INWKKIFQKVKNLV-NH2 [PDD-A] | 30% | 27% | – | – | – | 354 ± 44.8 µM | – | – |
| CC[C@H](C)[C@H](N)C(=O)N[C@@H](CC(N)=O)C(=O)N[C@@H](CC(C)C)C(=O)N[C@@H](CCCCN)C(=O)N[C@@H](C)C(=O)N[C@@H](CC(C)C)C(=O)N[C@@H](C)C(=O)N[C@@H](C)C(=O)N[C@@H](CC(C)C)C(=O)N[C@@H](C)C(=O)N[C@@H](CCCCN)C(=O)N[C@@H](CCCCN)C(=O)N[C@H](C(=O)N[C@@H](CC(C)C)C(N)=O)[C@@H](C)CC [Mastoparan (L)] | 100% | 41% | 242 ± 2.6 µM | – | – | 82.9 ± 3.8 µM | – | – |
| INWHDIAIKNIDAL-NH2 [Polybia-MP V] | 0% | 0% | > 400 µM | – | – | > 400 µM | – | – |
| INLKVFAALVKKLL-NH2 [Mastoparan-T2] | 100% | 100% | 21.1 ± 2.4 µM | – | – | 11.8 ± 3.1 µM | – | – |
| INWLKLGKKILGAL-NH2 [PDD-B] | 100% | 100% | 55.6 ± 4.1 µM | – | – | 48.5 ± 3.4 µM | – | – |
| INWLKLGKAVIDIL-NH2 [Protopolybia-MPIII-4] | – | – | – | 11.3 ± 6.2 µM | 19.8 ± 1.2 µM | – | – | – |
| INLKALAALVKKVL-NH2 [Mastoparan-II] | 78% | 90% | 147 ± 3.4 µM | – | – | 134.6 ± 1.2 µM | – | – |
| INWLKLGKKVIDAL-NH2 [Protopolybia-MPIII-1] | – | – | – | 176.4 ± 1 µM | 158 ± 2.3 µM | – | – | – |
| CC[C@H](C)[C@H](NC(=O)[C@H](CC(=O)O)NC(=O)[C@@H](N)Cc1ccccc1)C(=O)N[C@@H](CCSC)C(=O)NCC(=O)N[C@@H](CC(C)C)C(=O)N[C@H](C(=O)N[C@@H](CCCCN)C(=O)N[C@@H](CCCCN)C(=O)N[C@H](C(=O)N[C@@H](C)C(=O)NCC(=O)N[C@@H](C)C(=O)N[C@@H](CC(C)C)C(N)=O)C(C)C)[C@@H](C)CC [EMP-ER] | 25% | 46% | 231 ± 3.7 µM | – | – | – | – | – |
| INWLKLGKAIIDAL-NH2 [Agelaia-MPI] | 100% | 98% | 7 ± 0.7 µM | – | – | 3.7 ± 0.14 µM | – | – |

| Compound | HRBC Hemolysis (hemolysis rate at 320 μg/mL) ([1]; 1% Triton X-100 = 100%) | RRBC Hemolysis (hemolysis rate at 320 μg/mL) ([2]; 1% Triton X-100 = 100%) | EC50 [2, 3] | EC50 [1, 4] | EC50 [2, 5] | EC50 [1, 6] | hemolytic activity on HRBCs, result in words ([1]; mutants relative to Protopolybia-MPIII) | EC50 ([1]; peptide 10-320 μg/mL twofold dilutions, 1% Triton X-100 = 100%, listed as Polybia-MPI, read-out: HRBC EC50 (hemolytic activity)) |
| --- | --- | --- | --- | --- | --- | --- | --- | --- |
| INWLKLGKAVIAAL-NH2 [Protopolybia-MPIII-3] | – | – | – | 16.8 ± 1 µM | 21.5 ± 1.2 µM | – | – | – |
| INWLKLGKAVIAIL-NH2 [Protopolybia-MPIII-10] | – | – | – | 11.3 ± 1.2 µM | 11.7 ± 1 µM | – | – | – |
| INLLKIAKGIIKSL-NH2 [EMP-AF] | 100% | 100% | 122 ± 13.1 µM | – | – | 111 ± 9.8 µM | – | – |
| INWKAIIEAAKQAL-NH2 [Protopolybia-MPII] | 13% | 24% | > 400 µM | – | – | > 400 µM | – | – |
| FDVMGIIKKIASAL-NH2 [EMP-EF] | 100% | 48% | 216.8 ± 1.6 µM | – | – | 125 ± 20.6 µM | – | – |
| INWLKLGKKMMSAL-NH2 [MP] | 87% | 10% | – | – | – | 124 ± 15.3 µM | – | – |
| IKWKAILDAVKKVL-NH2 [Mastoparan-A] | 7% | 56% | 183 ± 3.4 µM | – | – | – | – | – |
| LNFKALAALAKKIL-NH2 [Pm-R2] | 66% | 34% | 250 ± 9.9 µM | – | – | 166 ± 8 µM | – | – |
| INWLKLGKAVSAAL-NH2 [Protopolybia-MPIII-8] | – | – | – | 308 ± 6.2 µM | 444 ± 2.1 µM | – | – | – |
| INLRGFAALVKKFL-NH2 [Mastoparan-T3] | 100% | 100% | 51.6 ± 2.1 µM | – | – | 112 ± 8 µM | – | – |
| FDLLGLVKKVASAL-NH2 [EpVP2a] | 79% | 41% | 239 ± 7.6 µM | – | – | 152 ± 6.3 µM | – | – |
| INWKKIKSLIKAAMS-NH2 [Mastoparan-V2] | 15% | 52% | 182 ± 3.6 µM | – | – | – | – | – |
| INWKKIKSIIKAAMN-NH2 [Mastoparan-V1] | 9% | 16% | – | – | – | – | – | – |
| INWKGIAAMAKKLL-NH2 [Mastoparan-X(V)] | 29% | 70% | 156 ± 2.4 µM | – | – | ≤ 400 µM and 349 µM | – | – |
| IDWKKLLDAAKQIL-NH2 [Polybia-MP I] | 56% | 100% | 51.4 ± 2.2 µM | – | – | 177 ± 7 µM | – | ≤ 400 µM |
| INWAKLGKLALQAL-NH2 [Ropalidia-MP] | 100% | 94% | 122 ± 4.3 µM | – | – | 42.5 ± 1.7 µM | – | – |
| LNLKGLFKKVASLLT [Eumenitin-F] | 67% | 44% | 207.1 ± 2 µM | – | – | 157 ± 2.6 µM | – | – |
| IDWLKLGKMVMDVL-NH2 [Polybia-MP III] | 79% | 100% | 74.8 ± 10.4 µM | – | – | 38.5 ± 5.9 µM | – | – |
| INWLKLGKAVSDIL-NH2 [Protopolybia-MPIII-9] | – | – | – | 167 ± 2.7 µM | 161.7 ± 1.3 µM | – | – | – |
| INWLKLGKAVSAIL-NH2 [Protopolybia-MPIII-11] | – | – | – | 141 ± 2.4 µM | 134 ± 2.2 µM | – | – | – |
